Reference: patent US20230142739A1, “PROTEIN-PROTEIN INTERACTION STABILIZERS” (The Regents of the University of California, priority 2020, published 2023)
Marks after values point to notes of the source that are not given here.

Tests used:
ER = ER (Homo sapiens, UniProt P31947); assay: MS (KD,app), ER; type: binding; details: 24 hr incubation
p65_45/14-3-3γ [1] = target: T1, p65_45/14-3-3γ (Homo sapiens, UniProt P61981); assay: Fluorescence anisotropy compound titration, p65_45 peptide with 50 μM 14-3-3γ (CC50)
Method: Biochemical assessment of fragments 1-7 used a fluorescence anisotropy (FA) assay. […] The subsequent outputs are herein term termed ‘half maximal complex concentration (CC50)’. […] We sought to develop a structure-activity relationship (SAR) based upon these four chemotypes with the specific goal to develop high affinity molecular glues which orthosterically engage with p65 and stabilize the 14-3-3/p65 complex.
During compound titrations, the 14-3-3γ concentration was constant 50 μM and the compound was titrated in a 1:1 dilution series. In protein titrations, 14-3-3γ was titrated in a 1:1 dilution series in the presence of 1 mM compound. […] All measurements were performed once.

p65_45/14-3-3γ [2] = target: T1, p65_45/14-3-3γ; assay: Fluorescence anisotropy protein titration, p65_45 peptide/14-3-3γ in presence of 1 mM fragment; type: binding; parameters: The full length 14-3-3γ was dialysis against 25 mM HEPES pH7.5; made in house; host or cells: E. coli BL21(DE3), pPROEX HTb
Method: SF: the fold-change of apparent KD in comparison to a DMSO control.
During compound titrations, the 14-3-3γ concentration was constant 50 μM and the compound was titrated in a 1:1 dilution series. In protein titrations, 14-3-3γ was titrated in a 1:1 dilution series in the presence of 1 mM compound. The plates (Corning 384 well plates, black, round bottom, low binding) were incubated for 3 h RT prior to fluorescence anisotropy (FA) measurements with the Tecan Infinite 500 plate reader (FITC dye: excitation 485 nm, emission 535 nm). Dilution series were prepared in FA buffer (10 mM HEPES pH 7.4, 150 mM NaCl, 0.1% Tween20). All measurements were performed once.

[3] = Table 9, fold-change of apparent KD vs DMSO control
[4] = fold-change of apparent KD in comparison to a DMSO control, 1 mM fragment

ER, sequence (P31947 whole entry, other chains not shown): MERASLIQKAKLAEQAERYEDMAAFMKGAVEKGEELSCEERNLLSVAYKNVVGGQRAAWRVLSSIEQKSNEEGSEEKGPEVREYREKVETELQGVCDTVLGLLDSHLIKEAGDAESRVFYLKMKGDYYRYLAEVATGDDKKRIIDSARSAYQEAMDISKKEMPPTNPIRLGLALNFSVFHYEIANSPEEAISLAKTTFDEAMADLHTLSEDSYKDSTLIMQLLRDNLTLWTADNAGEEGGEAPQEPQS
T1 sequence (P61981 whole entry, other chains not shown, the tested form may be a part): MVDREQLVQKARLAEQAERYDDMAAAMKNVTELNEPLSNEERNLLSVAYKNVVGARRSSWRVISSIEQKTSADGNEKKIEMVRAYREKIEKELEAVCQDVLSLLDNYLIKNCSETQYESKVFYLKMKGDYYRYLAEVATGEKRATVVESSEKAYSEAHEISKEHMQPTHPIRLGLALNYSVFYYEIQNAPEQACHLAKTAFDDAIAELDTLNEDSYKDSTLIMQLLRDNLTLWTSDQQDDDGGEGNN

O=C(CCl)CCC1CCN(C(=O)C2(Nc3ccc(Cl)cc3)CCOCC2)CC1
Kd (ER): 0.145 µM

O=C(CCl)NCCCC1CCN(C(=O)C2(Nc3ccc(Cl)cc3)CCOCC2)CC1
Kd (ER): < 0.1 µM

C=CS(=O)(=O)NCC1CCN(C(=O)C2(Nc3ccc(Cl)cc3)CCOCC2)CC1
Kd (ER): 0.125 µM

O=Cc1ccc(S(=O)(=O)N2CCC(CNC(=O)CCl)CC2)cc1
Kd (ER): 150 µM

O=C(CCl)NCC1CCN(S(=O)(=O)c2ccc(Cl)cc2)CC1
Kd (ER): 7.15 µM

CC1CCc2ccccc2N1S(=O)(=O)c1ccc(C=O)cc1 (racemic) [24b, rac-4-[(2-methyl-1,2,3,4-tetrahydroquinolin-1-yl)sulfonyl]benzaldehyde]
EC50 (p65_45/14-3-3γ [1]): 310 µM | SF (p65_45/14-3-3γ [2]; [3]): 36

COC1CCCN(c2cc(C=O)ccc2[N+](=O)[O-])C1 (stereo not drawn) [13e, 3-(3-methoxypiperidin-1-yl)-4-nitrobenzaldehyde]
activity in FA compound titration (p65_45/14-3-3γ [1]): did not elicit significant ternary complex formation

O=Cc1ccc([N+](=O)[O-])c(N2CCC(O)CC2)c1 [13f, 3-(4-hydroxypiperidin-1-yl)-4-nitrobenzaldehyde]
activity in FA compound titration (p65_45/14-3-3γ [1]): did not elicit significant ternary complex formation

O=Cc1ccc([N+](=O)[O-])c(N2CCCC(O)C2)c1 (stereo not drawn) [13l, 3-(3-hydroxypiperidin-1-yl)-4-nitrobenzaldehyde]
activity in FA compound titration (p65_45/14-3-3γ [1]): did not elicit significant ternary complex formation

O=Cc1ccc([N+](=O)[O-])c(N2CCOCC2)c1 [13q, 3-(morpholin-4-yl)-4-nitrobenzaldehyde]
activity in FA compound titration (p65_45/14-3-3γ [1]): did not elicit significant ternary complex formation

O=Cc1ccc(-n2ccnc2Br)nc1 [16d, 6-(2-bromo-1H-imidazol-1-yl)pyridine-3-carbaldehyde]
activity in FA compound titration (p65_45/14-3-3γ [1]): induced an increase in anisotropy

O=Cc1ccc(-n2cncc2[C@H]2CCCN2CC2CC2)nc1 [16e, 6-{5-[(2R)-1-(cyclopropylmethyl)pyrrolidin-2-yl]-1H-imidazol-1-yl}pyridine-3-carbaldehyde]
activity in FA compound titration (p65_45/14-3-3γ [1]): induced an increase in anisotropy

Cn1ccc(NS(=O)(=O)c2ccc(C=O)cc2)n1 [23b, 4-formyl-N-(1-methyl-1H-pyrazol-3-yl)benzene-1-sulfonamide]
SF (p65_45/14-3-3γ [2]; [4]): 1.5

CN(C)S(=O)(=O)c1ccc(C=O)cc1 [23c, 4-formyl-N,N-dimethylbenzene-1-sulfonamide]
SF (p65_45/14-3-3γ [2]; [4]): 1.8

COC1CN(S(=O)(=O)c2ccc(C=O)cc2)C1 [23d, 4-[(3-methoxyazetidin-1-yl)sulfonyl]benzaldehyde]
SF (p65_45/14-3-3γ [2]; [4]): 5.1

C[C@H]1CCCN1S(=O)(=O)c1ccc(C=O)cc1 [23e, 4-{[(2S)-2-methylpyrrolidin-1-yl]sulfonyl}benzaldehyde]
SF (p65_45/14-3-3γ [2]; [4]): 20.6

CN1CCCN(S(=O)(=O)c2ccc(C=O)cc2)CC1 [23g, 4-[(4-methyl-1,4-diazepan-1-yl)sulfonyl]benzaldehyde]
SF (p65_45/14-3-3γ [2]; [4]): 4.0

CN1CCN(S(=O)(=O)c2ccc(C=O)cc2)CC1 [23h, 4-[(4-methylpiperazin-1-yl)sulfonyl]benzaldehyde]
SF (p65_45/14-3-3γ [2]; [4]): 3.3

CCN1CCN(S(=O)(=O)c2ccc(C=O)cc2)CC1 [23i, 4-[(4-ethylpiperazin-1-yl)sulfonyl]benzaldehyde]
SF (p65_45/14-3-3γ [2]; [4]): 3.3

CC(C)N1CCN(S(=O)(=O)c2ccc(C=O)cc2)CC1 [23j, 4-{[4-(propan-2-yl)piperazin-1-yl]sulfonyl}benzaldehyde]
SF (p65_45/14-3-3γ [2]; [4]): 5.5

COCCN1CCN(S(=O)(=O)c2ccc(C=O)cc2)CC1 [23l, 4-{[4-(2-methoxyethyl)piperazin-1-yl]sulfonyl}benzaldehyde]
SF (p65_45/14-3-3γ [2]; [4]): 4.5

O=Cc1ccc(S(=O)(=O)N2CCC(N3CCCC3)CC2)cc1 [23m, 4-{[4-(pyrrolidin-1-yl)piperidin-1-yl]sulfonyl}benzaldehyde]
SF (p65_45/14-3-3γ [2]; [4]): 3.5

CN(C)C1CCN(S(=O)(=O)c2ccc(C=O)cc2)CC1 [23n, 4-{[4-(dimethylamino)piperidin-1-yl]sulfonyl}benzaldehyde]
SF (p65_45/14-3-3γ [2]; [4]): 3.5

CC(=O)N1CCN(S(=O)(=O)c2ccc(C=O)cc2)CC1 [23o, 4-[(4-acetylpiperazin-1-yl)sulfonyl]benzaldehyde]
SF (p65_45/14-3-3γ [2]; [4]): 4.5

O=Cc1ccc(S(=O)(=O)N2CCNC(=O)C2)cc1 [23p, 4-[(3-oxopiperazin-1-yl)sulfonyl]benzaldehyde]
SF (p65_45/14-3-3γ [2]; [4]): 2.2

O=Cc1ccc(S(=O)(=O)N2CCCC(O)C2)cc1 (stereo not drawn) [23q, 4-[(3-hydroxypiperidin-1-yl)sulfonyl]benzaldehyde]
SF (p65_45/14-3-3γ [2]; [4]): 10.3

COC1CCCN(S(=O)(=O)c2ccc(C=O)cc2)C1 (stereo not drawn) [23r, 4-[(3-methoxypiperidin-1-yl)sulfonyl]benzaldehyde]
SF (p65_45/14-3-3γ [2]; [4]): 7.5

O=Cc1ccc(S(=O)(=O)N2CCC(O)CC2)cc1 [23s, 4-[(4-hydroxypiperidin-1-yl)sulfonyl]benzaldehyde]
SF (p65_45/14-3-3γ [2]; [4]): 7.2

COC1CCN(S(=O)(=O)c2ccc(C=O)cc2)CC1 [23t, 4-[(4-methoxypiperidin-1-yl)sulfonyl]benzaldehyde]
SF (p65_45/14-3-3γ [2]; [4]): 16.5

O=Cc1ccc(S(=O)(=O)N2CCOCC2)cc1 [23u, 4-(morpholine-4-sulfonyl)benzaldehyde]
SF (p65_45/14-3-3γ [2]; [4]): 6.3

CN(C1CCCCC1)S(=O)(=O)c1ccc(C=O)cc1 [23w, N-cyclohexyl-4-formyl-N-methylbenzene-1-sulfonamide]
SF (p65_45/14-3-3γ [2]; [4]): 12.7

CN(C1CCOCC1)S(=O)(=O)c1ccc(C=O)cc1 [23x, 4-formyl-N-methyl-N-(oxan-4-yl)benzene-1-sulfonamide]
SF (p65_45/14-3-3γ [2]; [4]): 5.9

O=Cc1ccc(S(=O)(=O)N2CCc3ccccc3C2)cc1 [23y, 4-(1,2,3,4-tetrahydroisoquinoline-2-sulfonyl)benzaldehyde]
EC50 (p65_45/14-3-3γ [1]): 180 µM | SF (p65_45/14-3-3γ [2]; [3]): 0.7^a | SF (p65_45/14-3-3γ [2]; [4]): 0.7

O=Cc1ccc(S(=O)(=O)N2CCc3ccccc32)cc1 [24a, 4-(2,3-dihydro-1H-indole-1-sulfonyl)benzaldehyde]
EC50 (p65_45/14-3-3γ [1]): 220 µM | SF (p65_45/14-3-3γ [2]; [3]): 30

O=Cc1ccc(S(=O)(=O)N2CCCc3cc(F)ccc32)cc1 [24c, 4-[(6-fluoro-1,2,3,4-tetrahydroquinolin-1-yl)sulfonyl]benzaldehyde]
EC50 (p65_45/14-3-3γ [1]): 140 µM | SF (p65_45/14-3-3γ [2]; [3]): 56

O=Cc1ccc(S(=O)(=O)N2CCCc3cc(Cl)ccc32)cc1 [24d, 4-[(6-chloro-1,2,3,4-tetrahydroquinolin-1-yl)sulfonyl]benzaldehyde]
EC50 (p65_45/14-3-3γ [1]): 160 µM | SF (p65_45/14-3-3γ [2]; [3]): 36

COc1ccc2c(c1)CCCN2S(=O)(=O)c1ccc(C=O)cc1 [24e, 4-[(6-methoxy-1,2,3,4-tetrahydroquinolin-1-yl)sulfonyl]benzaldehyde]
EC50 (p65_45/14-3-3γ [1]): 120 µM | SF (p65_45/14-3-3γ [2]; [3]): 34

O=Cc1ccc(S(=O)(=O)N2CCOc3ccccc32)cc1 [24f, 4-(3,4-dihydro-2H-1,4-benzoxazine-4-sulfonyl)benzaldehyde]
EC50 (p65_45/14-3-3γ [1]): 220 µM | SF (p65_45/14-3-3γ [2]; [3]): 23

O=Cc1ccc(S(=O)(=O)N2CCOc3ccc(F)cc32)cc1 [24g, 4-[(6-fluoro-3,4-dihydro-2H-1,4-benzoxazin-4-yl)sulfonyl]benzaldehyde]
EC50 (p65_45/14-3-3γ [1]): 310 µM | SF (p65_45/14-3-3γ [2]; [3]): 22

O=Cc1ccc(S(=O)(=O)N2CCOc3cc(Cl)ccc32)cc1 [24h, 4-[(7-chloro-3,4-dihydro-2H-1,4-benzoxazin-4-yl)sulfonyl]benzaldehyde]
EC50 (p65_45/14-3-3γ [1]): 250 µM | SF (p65_45/14-3-3γ [2]; [3]): 28

COc1ccc2c(c1)OCCN2S(=O)(=O)c1ccc(C=O)cc1 [24i, 4-[(7-methoxy-3,4-dihydro-2H-1,4-benzoxazin-4-yl)sulfonyl]benzaldehyde]
EC50 (p65_45/14-3-3γ [1]): 110 µM
